This is an account of results in US11602546B2, “Combination inhibiting MEIS proteins” (YEDÍTEPE ÜNÍVERSÍTESÍ, priority 2016, dated 2023).

Data set [1] concerns p21-Luc MEIS reporter (Meis1). Description: in vitro p21 luciferase reporter assay in COS cells. The following applies: COS cells, 0.1, 1 and 10 μM, 48 hours. The class given is cell-based. As to the method:
2—Determining Meis1 Inhibitors by In Vitro Luciferase Reporter Assay
MEIS inhibitors were tested by conducting the luciferase reporter assay. It was observed that MEIS protein activated the luciferase reporters containing increasing doses of p21 promoters. pGL2 vectors comprising p21 gene promoter, which is activated by Meis1, were used in the luciferase assays. Therefore, 0.8 μg p21-pGL2, 400 ng Meis1 expression vector pCMVSPORT6-Meis1 (Open BioSystems) and 0.2 μg p CMV-LacZ (internal control) vector were transfected together to the COS cells. 4 hours later, the cells were treated with prototype MEIS inhibitors (at 0.1, 1 and 10 μM concentrations). 6-well plates and lipofectamine were used for transfection. 48 hours later, the cells were lysed, samples were collected and luciferase activity was determined. Reporter system of Promega (Promega Dual-Glo® Luciferase Assay System) was used for this. Luciferase measurements were normalized according to β-gal measurements (measurements were made at 420 nm). Thermo Lab system Lumino scan Ascent device was used for the luciferase measurements. As a result of these experimental studies, the in silico study, which targeted MEIS homeodomain and was conducted in comparison to the other TALE homeodomain, enabled to determine MEIS-specific hits (Experimental Results (ER): ER-A).

Data set [2] deals with p21, Hif-1alpha (Hif-1α), Hif-2alpha (Hif-2α) genes in the Meis1 pathway. Description: real-time RT-PCR of Meis1 pathway genes in HSCs. It counts as cell-based. The following applies: HSCs, 0.1, 1 and 10 μM, 3 days, vs DMSO. The procedure: 3—Testing MEIS Inhibitors by Real-Time RT-PCR
HSCs were prepared for each inhibitor (3 replicates in 6 wells) and cell series containing DMSO were used as control group. For each potential small molecule, assays were conducted at concentrations of 0.1, 1 and 10 μM; and the cells were trypsinized and collected after 3 days and were stored in trizol until RNA isolation was carried out. RNA isolation was performed by using Qiagen in RNeasy mini kit and protocol. cDNA was synthesized from 2 μg RNA by using Invitrogen in Superscript II RT system. Assays were conducted in BioRad CFX 96 Real Time PCR device by using SyberGreen (AppliedBiosystems). GAPDH was used as the control gene and was used for normalizing gene expression by ddCT method. Levels of the p21, Hif-1alpha (Hif-1α), Hif-2alpha (Hif-2α) gene expressions, which are known to be activated by Meis1, were determined and were controlled by DMSO control group (FIG. 3) (ER: B).
On the technique in general: Quantitative PCR measures a nucleic acid by following its amplification.

For data set [3], the system named is L929 murine fibroblastic cell line. The experiment in a line: cytotoxic analyses, WST1, L929 cell line. It counts as cell-based. The following applies: L929 cells, 0, 1, 1 and 10 μM doses, 4 days. As to the method:
6—Cytotoxic Analyses of MEIS Inhibitors
L929 murine fibroblastic cell line was used for cytotoxic analyses of the MEIS inhibitors. The cells were seeded into a 96-well plate (Corning, 3799) at 2000 cells per well. The next day after seeding, the cells were treated by different doses by means of gradient concentration method using final concentrations of 0.1 μM, 1 μM, 10 μM with Meis1 inhibitor 1 (MEISi-1) and Meis1 inhibitor 2 (MEISi-2) mixed into each well in maximum 200 μl DMEM medium, and they were incubated in 5% CO2 and normal O2 level at 37° C. 4 days after the incubation, 10 μl WST1 cell proliferation solution (Boster, AR1159) was added, and after incubation of 4 hours, absorbance measurement was carried out at 450 nm by Thermo Lab system Multiskan Spektrum (ER-G).

In data set [4] the test system is Lin− cells obtained from the bone marrow / HSCs. The experiment in a line: ex vivo mouse HSC proliferation (Lin− bone marrow cells, flow cytometry). It counts as cell-based. The following applies: dose dependent. As to the method:
4—Determining the effect of MEIS inhibitor on ex vivo HSC proliferation
Bone marrow isolation from mouse and HSC purification were performed. For this, following euthanasia of 8-12 week old mice with isoflurane, bone marrow cells were obtained from femur and tibia bones. Briefly, Lin−, Sca1+, c-Kit+, CD34low cells (long term HSCs) were obtained by being stained with cell line cocktail with biotin (anti-CD3, anti-CDS, anti-B220, anti-Mac-1, anti-Gr1, anti-Ter119; Stem Cell Technologies), and that was followed by streptavidin-PE/Cy5.5, anti-Sca-1-FITC, anti-KIT-APC, and anti-CD34-PE staining. HSC medium known as SCF medium was used in the culture of the isolated bone marrow cells. […]
HSC frequency and number: The Lin− cells obtained from the bone marrow were treated in the cell culture with MEIS inhibitors or DMSO for 10 days, and subsequently the number of hematopoietic cells (FIG. 4) and the percentage of HSCs (FIGS. 5 and 6) were determined. In order to determine the number of HSCs, the concerned surface antigens (Lin−, Sca1+, c-Kit+, CD34−) were stained with fluorochrome conjugated antibody as in the previous studies and then analyzed with flow cytometry (ER: C).
(Flow cytometry measures light scatter and fluorescence of single cells or particles in a stream.)

The test system of data set [5] is human HSCs from bone marrow or umbilical cord blood. Description: human HSC expansion ex vivo. It counts as cell-based. The following applies: human hematopoietic cell culture, in comparison to DMSO control group. The procedure: Human HSC Expansion: The cells obtained from bone marrow or umbilical cord blood were separated by Percoll and mononuclear cells were obtained. They were transferred to the tubes containing HSC medium. HSC medium known as SCF medium was used in the culture of the isolated bone marrow and umbilical cord blood HSCs. […] Following HSC purification, HSCs were seeded into a 96-well plate (Corning, 3799) at 200-300 HSCs per well; and upon adding maximum 200 μl of MEIS inhibitors mixed in SCF medium into each cell, they were incubated in 5% CO2 and normal O2 level at 37° C. for 7-10 days. Then, the number and percentage (frequency) of the HSCs and of the other hematopoietic progenitor cells were determined. The results were compared with the control group treated with DMSO (ER: E).

Data set [6] relates to HSCs in mouse bone marrow and blood. The experiment in a line: in vivo proliferation of HSCs with MEIS inhibitors. The following applies: 0.5 mg/kg to 10 mg/kg, 10 days after administration. As to the method:
5—In Vivo Proliferation of HSCs with MEIS Inhibitors
As an alternative to ex vivo proliferation of HSCs by using small molecules, it was shown that application of MEIS inhibitors directly for in vivo HSC proliferation is also possible. The injected MEIS inhibitors were administered intraperitoneally in the range of 0.5 mg/kg to 10 mg/kg. In order to ensure effective incubation, the inhibitors were administered to the mice in 3 different doses; and 10 days after administration, the amount of the HSCs obtained from the bone marrow of the mice was determined (FIG. 9) (ER: F).

The nature of data set [7]: dose-dependent in vitro experiments (effective dose). It counts as cell-based. As to the method:
The effective dose was determined to be 1 μM by means of the dose-dependent in vitro experiments.

Molecules are shown by their SMILES.

Turning to `Cc1cccc(NC(=O)c2ccc(OCC(=O)NCc3ccccc3)cc2)c1C` [MEISi-1, 4-[2-(benzylamino)-2-oxoethoxy]-N-(2,3-dimethylphenyl) benzamide], the “inhibition of p21-Luc MEIS reporter (luciferase activity)” value in data set [1] was “inhibit p21-Luc MEIS reporter in a dose-dependent manner”. Moreover, in data set [2], the “expression of Hif-1alpha (Hif-1α) gene” value is given as “reduce expression”, the “expression of Hif-2alpha (Hif-2α) gene” value is recorded as “reduce expression” and the “expression of p21 gene” value is given as “reduce expression”. Moreover, in data set [3], the cytotoxicity entry is “not cytotoxic”. For the same compound, the “increase in the number of HSCs” value in data set [4] was “up to 10 times”. In addition, in data set [5], the “ALDHBr HSC number increase” value turned out to be 2 times, the “CD34+ HSC number increase” value was determined as 2 times, the “CD34+CD133 HSC number increase” value was 2 times and the “CD133+ HSC number increase” value is 2 times. For the same compound, in data set [6], the “HSC number in mouse bone marrow (LSKCD34low cells)” value is on record as “successfully increased HSC number” and the “HSC number in the blood (LSKCD150+CD48− cells)” value was “successfully increased HSC number”. For the same compound, the effective dose in data set [7] is 1 µM.

As for `O=C1C=Cc2ccccc2/C1=C/NNC(=O)c1ccc(O)cc1` [MEISi-2, 4-hydroxy-N′-[(Z)-(2-oxonaphthalen-1-ylidene)methyl] benzohydrazide], the “inhibition of p21-Luc MEIS reporter (luciferase activity)” value in data set [1] is “inhibit p21-Luc MEIS reporter in a dose-dependent manner”. For the same compound, in data set [2], the “expression of Hif-1alpha (Hif-1α) gene” value is listed as “reduce expression”, the “expression of Hif-2alpha (Hif-2α) gene” value is on record as “reduce expression” and the “expression of p21 gene” value is reported as “reduce expression”. Moreover, the cytotoxicity entry in data set [3] is listed as “not cytotoxic”. Also, in data set [4], the “increase in the number of HSCs” value was “up to 3 times”. Further, in data set [5], the “ALDHBr HSC number increase” value worked out at 2 times, the “CD34+ HSC number increase” value amounted to 2 times, the “CD34+CD133 HSC number increase” value turned out to be 2 times and the “CD133+ HSC number increase” value stood at 2 times. Moreover, in data set [6], the “HSC number in mouse bone marrow (LSKCD34low cells)” value is reported as “successfully increased HSC number” and the “HSC number in the blood (LSKCD150+CD48− cells)” value is “successfully increased HSC number”. Also, the effective dose in data set [7] turned out to be 1 µM.
